The record followed here is ChEMBL document CHEMBL3132769, “Fragment growing to retain or alter the selectivity of anchored kinase hinge-binding fragments” (Medchemcomm, 2014).

Assay [1] addresses T1, Serine/threonine-protein kinase Chk1 (Homo sapiens) (UniProt O14757).
T1 sequence (whole entry): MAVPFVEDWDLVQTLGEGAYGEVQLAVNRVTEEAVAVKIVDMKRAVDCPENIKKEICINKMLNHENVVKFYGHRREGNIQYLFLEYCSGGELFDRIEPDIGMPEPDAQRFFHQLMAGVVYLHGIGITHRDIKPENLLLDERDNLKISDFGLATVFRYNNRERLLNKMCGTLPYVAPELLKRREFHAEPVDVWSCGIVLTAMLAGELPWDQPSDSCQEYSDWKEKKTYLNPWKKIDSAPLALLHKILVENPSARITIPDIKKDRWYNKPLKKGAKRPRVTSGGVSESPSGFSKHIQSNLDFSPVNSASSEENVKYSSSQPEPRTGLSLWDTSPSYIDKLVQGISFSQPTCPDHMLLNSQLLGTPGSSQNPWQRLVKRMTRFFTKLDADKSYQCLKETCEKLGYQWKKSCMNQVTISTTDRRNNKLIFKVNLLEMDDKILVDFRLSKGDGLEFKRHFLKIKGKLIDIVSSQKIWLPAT
Briefly: Inhibition of human full length CHK1 expressed in baculovirus assessed as substrate phosphorylation using fluorescence-labelled peptides as substrate at 420 uM after 90 mins by microfluidic peptide phosphorylation assay.

For assay [2], the target named is T2, Serine/threonine-protein kinase DCLK2 (Homo sapiens) (UniProt Q8N568).
T2 sequence (whole entry): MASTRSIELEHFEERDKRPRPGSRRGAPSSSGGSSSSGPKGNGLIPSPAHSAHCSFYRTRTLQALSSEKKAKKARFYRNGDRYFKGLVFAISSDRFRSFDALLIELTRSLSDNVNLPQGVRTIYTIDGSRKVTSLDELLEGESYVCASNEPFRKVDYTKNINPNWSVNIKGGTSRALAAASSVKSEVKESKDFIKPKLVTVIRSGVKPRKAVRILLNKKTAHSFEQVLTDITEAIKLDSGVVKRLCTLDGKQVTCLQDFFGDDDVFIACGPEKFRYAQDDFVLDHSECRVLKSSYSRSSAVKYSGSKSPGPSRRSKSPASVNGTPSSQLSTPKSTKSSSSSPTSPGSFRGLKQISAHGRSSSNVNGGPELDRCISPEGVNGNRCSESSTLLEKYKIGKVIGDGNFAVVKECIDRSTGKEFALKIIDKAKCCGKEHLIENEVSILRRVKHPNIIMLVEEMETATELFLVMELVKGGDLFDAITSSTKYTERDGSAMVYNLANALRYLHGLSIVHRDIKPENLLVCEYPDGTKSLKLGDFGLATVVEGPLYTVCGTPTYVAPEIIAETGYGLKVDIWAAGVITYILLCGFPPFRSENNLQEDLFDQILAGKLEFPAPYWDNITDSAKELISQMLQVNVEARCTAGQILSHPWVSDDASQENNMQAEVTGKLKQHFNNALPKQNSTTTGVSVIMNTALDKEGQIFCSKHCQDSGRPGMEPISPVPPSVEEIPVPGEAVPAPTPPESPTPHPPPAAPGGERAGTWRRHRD
Briefly: Inhibition of human full length DCAMKL2 expressed in baculovirus assessed as substrate phosphorylation using fluorescence-labelled peptides as substrate at 0.2 uM after 90 mins by microfluidic peptide phosphorylation assay.

For assay [3], the target named is Calcium/calmodulin-dependent protein kinase type II subunit delta (Homo sapiens) (UniProt Q13557). Briefly: Inhibition of human full length CAMK2D expressed in baculovirus assessed as substrate phosphorylation using fluorescence-labelled peptides as substrate at 9 uM after 90 mins by microfluidic peptide phosphorylation assay.
In assay [4] the target is T3, Calcium/calmodulin-dependent protein kinase type IV (Homo sapiens) (UniProt Q16566).
T3 sequence (whole entry): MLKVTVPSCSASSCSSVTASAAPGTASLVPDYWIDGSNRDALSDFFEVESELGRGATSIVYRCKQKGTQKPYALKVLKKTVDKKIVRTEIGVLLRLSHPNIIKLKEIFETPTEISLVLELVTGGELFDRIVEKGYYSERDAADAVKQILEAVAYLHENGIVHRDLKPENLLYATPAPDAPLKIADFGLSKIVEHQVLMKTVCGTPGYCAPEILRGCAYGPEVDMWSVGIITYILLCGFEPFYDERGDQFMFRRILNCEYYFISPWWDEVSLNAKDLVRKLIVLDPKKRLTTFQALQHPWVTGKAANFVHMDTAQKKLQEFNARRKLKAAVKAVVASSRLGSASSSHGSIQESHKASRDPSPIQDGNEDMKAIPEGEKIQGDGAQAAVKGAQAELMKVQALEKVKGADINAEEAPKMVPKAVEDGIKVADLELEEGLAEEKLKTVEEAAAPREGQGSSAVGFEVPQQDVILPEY
Briefly: Inhibition of human full length CAMK4 expressed in baculovirus assessed as substrate phosphorylation using fluorescence-labelled peptides as substrate at 2 uM after 90 mins by microfluidic peptide phosphorylation assay.

For assay [5], the target named is T4, Inhibitor of nuclear factor kappa-B kinase subunit beta (Homo sapiens) (UniProt O14920).
T4 sequence (whole entry): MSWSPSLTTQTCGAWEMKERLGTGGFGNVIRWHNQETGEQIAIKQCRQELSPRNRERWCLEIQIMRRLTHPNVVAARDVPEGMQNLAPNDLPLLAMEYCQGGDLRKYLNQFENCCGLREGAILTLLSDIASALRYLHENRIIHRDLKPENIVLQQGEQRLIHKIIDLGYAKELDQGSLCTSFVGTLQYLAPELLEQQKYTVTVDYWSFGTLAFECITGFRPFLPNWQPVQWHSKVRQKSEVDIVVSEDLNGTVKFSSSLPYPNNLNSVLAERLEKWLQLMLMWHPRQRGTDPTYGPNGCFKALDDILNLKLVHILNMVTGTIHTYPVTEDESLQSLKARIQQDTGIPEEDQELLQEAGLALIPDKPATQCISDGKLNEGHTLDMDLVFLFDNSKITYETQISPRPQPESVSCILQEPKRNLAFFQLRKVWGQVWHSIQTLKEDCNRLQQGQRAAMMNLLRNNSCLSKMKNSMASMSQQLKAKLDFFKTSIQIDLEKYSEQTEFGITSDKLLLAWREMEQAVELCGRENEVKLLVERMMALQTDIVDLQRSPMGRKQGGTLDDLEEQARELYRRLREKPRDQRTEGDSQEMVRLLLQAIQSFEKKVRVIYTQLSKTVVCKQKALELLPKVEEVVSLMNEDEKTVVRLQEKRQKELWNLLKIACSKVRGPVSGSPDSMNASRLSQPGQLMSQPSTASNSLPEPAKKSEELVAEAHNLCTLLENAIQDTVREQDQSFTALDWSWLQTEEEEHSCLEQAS
Briefly: Inhibition of human full length IKK beta expressed in baculovirus assessed as substrate phosphorylation using fluorescence-labelled peptides as substrate at 95 uM after 90 mins by microfluidic peptide phosphorylation assay.

For assay [6], the system named is Fibroblast growth factor receptor 2 (Homo sapiens), P21802 [N549H]. As to the kind of experiment: Inhibition of human FGFR2 N549H mutant catalytic domain expressed in baculovirus assessed as substrate phosphorylation using fluorescence-labelled peptides as substrate at 1000 uM after 90 mins by microfluidic peptide phosphorylation assay.

Structures are written as SMILES.

Chain of Calcium/calmodulin-dependent protein kinase type II subunit delta (Homo sapiens) (Q13557 whole entry): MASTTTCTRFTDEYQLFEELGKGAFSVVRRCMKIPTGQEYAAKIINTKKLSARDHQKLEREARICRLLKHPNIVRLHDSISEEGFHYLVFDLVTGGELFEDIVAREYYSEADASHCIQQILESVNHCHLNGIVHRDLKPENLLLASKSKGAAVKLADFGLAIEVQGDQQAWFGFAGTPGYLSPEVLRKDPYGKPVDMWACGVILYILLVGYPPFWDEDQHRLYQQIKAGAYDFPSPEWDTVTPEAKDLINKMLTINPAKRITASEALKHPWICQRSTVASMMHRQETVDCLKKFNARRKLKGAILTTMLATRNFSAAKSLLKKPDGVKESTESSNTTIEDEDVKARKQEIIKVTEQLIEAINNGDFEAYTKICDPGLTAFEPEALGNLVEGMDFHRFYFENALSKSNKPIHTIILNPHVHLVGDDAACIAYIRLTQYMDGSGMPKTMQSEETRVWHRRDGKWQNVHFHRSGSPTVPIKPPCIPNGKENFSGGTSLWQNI
Chain of Fibroblast growth factor receptor 2 (Homo sapiens), P21802 [N549H] (P21802 whole entry N549H, the tested form may be a part): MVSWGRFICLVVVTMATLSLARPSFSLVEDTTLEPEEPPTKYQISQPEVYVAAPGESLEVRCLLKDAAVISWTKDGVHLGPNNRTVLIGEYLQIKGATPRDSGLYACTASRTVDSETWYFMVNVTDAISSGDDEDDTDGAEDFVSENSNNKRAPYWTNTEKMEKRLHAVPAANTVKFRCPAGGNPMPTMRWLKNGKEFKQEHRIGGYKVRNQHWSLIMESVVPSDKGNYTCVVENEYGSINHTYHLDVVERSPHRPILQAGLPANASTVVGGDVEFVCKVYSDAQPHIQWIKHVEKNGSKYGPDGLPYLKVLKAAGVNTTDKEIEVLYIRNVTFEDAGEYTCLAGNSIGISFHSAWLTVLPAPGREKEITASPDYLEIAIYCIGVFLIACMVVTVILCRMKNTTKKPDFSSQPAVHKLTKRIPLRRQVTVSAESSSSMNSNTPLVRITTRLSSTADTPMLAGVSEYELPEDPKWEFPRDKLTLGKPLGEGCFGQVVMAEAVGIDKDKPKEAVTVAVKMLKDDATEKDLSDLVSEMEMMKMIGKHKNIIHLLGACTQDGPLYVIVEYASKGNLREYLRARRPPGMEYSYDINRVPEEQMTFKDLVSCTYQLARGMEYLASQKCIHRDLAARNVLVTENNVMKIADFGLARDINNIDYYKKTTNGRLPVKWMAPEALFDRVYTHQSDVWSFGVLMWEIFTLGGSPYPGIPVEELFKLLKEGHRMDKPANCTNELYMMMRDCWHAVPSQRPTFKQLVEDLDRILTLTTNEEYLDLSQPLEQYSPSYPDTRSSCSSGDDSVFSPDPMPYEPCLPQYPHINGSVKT

As a reminder, the inhibition is the change of the read-out against control, counted positive when it falls. `c1nc(N2CCOCC2)c2nc[nH]c2n1`: in assay [1], the inhibition worked out at 88.5%.
As to `Clc1ccc(C2(c3ccc(-c4ncnc5[nH]cnc45)cc3)CCNCC2)cc1`, the inhibition in assay [2] stood at 10%.
`NCC1CN(c2ncnc3[nH]c4cnccc4c23)CCO1` (stereo unspecified): the inhibition in assay [3] was 42.5%.
`NC1CCN(c2ncnc3[nH]ccc23)CC1`: in assay [4], the inhibition was 12%.
On to `NCCc1ccc(-c2ncnc3[nH]cnc23)cc1`, for which, in assay [5], the inhibition was 91%.
For `c1cnc2[nH]ccc2c1`, the inhibition in assay [6] amounted to 42%.
